Test results reported in EP4151201A1, “SHEET PRODUCT” (Kao Corporation, priority 2020, dated 2021).

experiment: Krafft point of the anionic surfactant; type: physicochemical; details: Krafft point at 10 mass% in aqueous solution; unit not given, Krafft points in °C
Method: The present invention uses a view that the Krafft point is a melting point of a hydrated solid of a surfactant. That is, the Krafft point is the temperature at which a surfactant precipitates when an aqueous solution thereof is cooled. In some kinds of surfactants, the Krafft point changes depending on the concentration. In the present invention, an anionic surfactant having a Krafft point of 45°C or more at a concentration of 10 mass% in an aqueous solution is used. The Krafft point can be measured using a differential scanning calorimetry.

| Kp (Krafft point) | SMILES |
| --- | --- |
| Sodium laurate (Kp ≈ 38) | CCCCCCCCCCCC(=O)[O-].[Na+] [Sodium laurate] |
| Sodium stearate (Kp = 79) | CCCCCCCCCCCCCCCCCC(=O)[O-].[Na+] [Sodium stearate] |

| SMILES | Kp (Krafft point) |
| --- | --- |
| CCCCCCCCCCCCCCCCCC(=O)N(C)CCS(=O)(=O)[O-].[Na+] [Sodium N-stearoyl-N-methyltaurate] | Sodium N-stearoyl-N-methyltaurate (Kp = 50) (Nikkol SMT, manufactured by Nikko Chemicals Co., Ltd.) |
